Tests used:
SARS-CoV-2 PLpro [1] = target: T1, SARS-CoV-2 PLpro (Severe acute respiratory syndrome coronavirus 2, UniProt P0DTD1); assay: biochemical
SARS-CoV-2 PLpro [2] = target: T1, SARS-CoV-2 PLpro; assay: biochemical; remark: listed apart in the source

Row | SMILES | EC50 (SARS-CoV-2 PLpro [1]) [µM] | IC50 (SARS-CoV-2 PLpro [2]) [µM]
1 | O=S(=O)(O)CCSSCCS(=O)(=O)O [Dimesna] | 1050 | 
2 | Cc1ncc(CSSCc2cnc(C)c(O)c2CO)c(CO)c1O [Pyritinol] | 18 | 
3 | CN(C)CCSSCCN(C)C [DMGA, bis[2-(N,N-dimethylamino)ethyl] disulfide] |  | 9.4
